From patent US9951089B2, “Methods of treating a fatty acid amide hydrolase-mediated condition” (INFINITY PHARMACEUTICALS, INC., priority 2010, dated 2018)

Target: T1, human FAAH (Homo sapiens, UniProt O00519)
T1 construct: The clone was in an ORIGENE® pCMV6-XL5 with an insert size of ˜2.2 kb
T1 sequence (O00519 50-579 limits assumed): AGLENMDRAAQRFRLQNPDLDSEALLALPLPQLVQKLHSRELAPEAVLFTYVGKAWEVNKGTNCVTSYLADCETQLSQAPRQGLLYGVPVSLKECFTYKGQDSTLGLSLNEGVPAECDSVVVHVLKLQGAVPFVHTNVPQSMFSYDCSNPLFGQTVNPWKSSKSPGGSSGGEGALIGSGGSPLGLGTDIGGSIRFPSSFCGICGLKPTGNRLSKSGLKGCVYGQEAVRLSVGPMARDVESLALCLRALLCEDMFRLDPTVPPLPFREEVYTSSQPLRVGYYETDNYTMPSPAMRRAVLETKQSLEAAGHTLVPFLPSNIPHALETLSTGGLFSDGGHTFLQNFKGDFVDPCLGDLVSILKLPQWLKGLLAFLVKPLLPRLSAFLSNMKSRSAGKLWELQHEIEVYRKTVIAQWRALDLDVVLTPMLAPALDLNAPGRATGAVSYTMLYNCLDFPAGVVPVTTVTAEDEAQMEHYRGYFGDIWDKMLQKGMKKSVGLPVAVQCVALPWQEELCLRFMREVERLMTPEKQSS
Experiment: Ki determination, human FAAH (AMC-arachidonoyl amide hydrolysis, fluorescence end point)
Type: biochemical
Conditions: hFAAH 108 μg/mL, substrate 20 μM, 30 min preincubation, 4 hours at room temperature
From the text: A human FAAH (hFAAH) cDNA clone was purchased from Origen (Catalog #TC 119221, Accession #NM_001441.1). The clone was in an ORIGENE® pCMV6-XL5 with an insert size of ˜2.2 kb. Sequencing of the clone indicated a conservative mutation of K48R. This point mutation is possibly an allelic difference, and is far from the active site and unlikely to effect the activity. This plasmid was amplified in E. coli and isolated by precipitation. […]
Frozen cell pellets were thawed on ice and resuspended in: 12.5 mM HEPES (pH 8.0), 100 mM NaCl, and 1 mM EDTA at a ratio of 25 mL per gram of cells. […] Total protein concentrations were determined using a Bio-Rad Protein Assay (Protein Assay Dye Reagent Concentrate, cat#500-0006) ref. 5. […]
The Ki of a test compound was determined for rat and human FAAH by measuring the dose dependent inhibition of AMC-Arachidonoyl amide hydrolysis as an end point read. Assays were carried out in Corning COSTAR® 384 well flat black bottom microtiter plates (Catalog #3654) and monitored in an Envision 2100 multilabel plate reader (Perkin Elmer-Wallac), with a 355 nm (40 nm band pass) excitation filter and 460 nm (25 nm bandpass) emission filter. […]

OB(O)c1ccc(-c2ccc(B(O)O)c(F)c2)cc1F [IMP-4]
Ki: 14.1 nM
